Assay results: US8148392B2, “2-indolyl imidazo [4,5-d] phenanthroline derivatives and their use in the treatment of cancer” (Lorus Therapeutics Inc., priority 2005, dated 2012)
Like-named read-outs stand apart in the source and are kept apart here.

What was measured:
[1] = test system: fourth leukemia cell line (a myeloma cell line); experiment: NCI DTP in vitro screen, fourth leukemia cell line; type: cell-based; details: Homo sapiens
Experimental: (§1) For example, the following methodology, which is currently employed by the NCI, can be used to assess the GI50 of a candidate compound of Formula I in the selected cancer cell lines. Briefly, cell suspensions are diluted (5000-40,000 cells per well) and 100 μL of the diluted cell suspension is added into 96-well microtiter plates. Inoculates are allowed a preincubation period of 24 h at 37° C. for stabilization. Dilutions at twice the intended test concentration of the candidate compound are added at time zero in 100 μL aliquots to the microtiter plate wells. Test compounds are generally evaluated at five 10-fold dilutions. In routine testing, the highest well concentration is usually 10E-4 M, but this may be adjusted depending on the compound being tested. […] The cells are then assayed by using the sulforhodamine B assay (see, for example, Skehan, P., et al. (1990) JNCI, J. Natl. Cancer Inst. 82, 1107-1112; and Chen, S. F., et al. (1990) Proc. Am. Assoc. Cancer Res. 31, A2644) employing a plate reader which can be used to read the optical densities.
(§2) Compounds 2 and 3 were evaluated for their antiproliferative effects in a panel of 60 human cancer cell lines as part of the in vitro anticancer screening services provided by the DTP (Developmental Therapeutics Program) of the US National Cancer Institute (NCI).

[2] = test system: panel of 60 human cancer cell lines; experiment: NCI DTP in vitro anticancer screen, panel of 60 human cancer cell lines; type: cell-based
Experimental: For example, the following methodology, which is currently employed by the NCI, can be used to assess the GI50 of a candidate compound of Formula I in the selected cancer cell lines. Briefly, cell suspensions are diluted (5000-40,000 cells per well) and 100 μL of the diluted cell suspension is added into 96-well microtiter plates. Inoculates are allowed a preincubation period of 24 h at 37° C. for stabilization. Dilutions at twice the intended test concentration of the candidate compound are added at time zero in 100 μL aliquots to the microtiter plate wells. Test compounds are generally evaluated at five 10-fold dilutions. In routine testing, the highest well concentration is usually 10E-4 M, but this may be adjusted depending on the compound being tested. The cells are incubated with the test compound for 48 h in 5% CO2 atmosphere and 100% humidity. The cells are then assayed by using the sulforhodamine B assay (see, for example, Skehan, P., et al. (1990) JNCI, J. Natl. Cancer Inst. 82, 1107-1112; and Chen, S. F., et al. (1990) Proc. Am. Assoc. Cancer Res. 31, A2644) employing a plate reader which can be used to read the optical densities.
as §2
Analysis of the effects of compounds of Formula I on in vitro and in vivo cell growth inhibition were performed utilizing the methods as described in the preceding Examples. As shown in Example 12, cell growth inhibition by the parental compound 3 was screened by National Cancer Institute 60-cell line assay and leukemia, non-small cell cancer, colon cancer, renal cancer and prostate cancer panels were especially sensitive to compound 3.

supercoiled plasmid DNA = experiment: In vitro DNA cleavage assay; type: biochemical
Outline: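 Supercoiled plasmid DNA (1 μg) in 10 mM sodium phosphate pH 6.7 with 100 μM ascorbate, 25 μM compound and 10 μM CuSO4 was kept 30 min at 37° C., stopped with EDTA and resolved on 1% agarose. Variants used 25 μM Cu, Zn or Fe salts, or compound:Cu ratios set with one component held at 10 μM.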

[3] = test system: p21 (cyclin-dependent kinase inhibitor); experiment: p21 mRNA expression in HT-29 cells, real-time PCR; type: cell-based, human; details: HT-29, 1 μM, after 4 hr
Experimental: The effect of compounds of Formula I on the expression of genes regulated by KLF4 was determined as follows. Compound 3 was tested to determine its ability to increase the expression of the cell cycle regulator p21 (cyclin-dependent kinase inhibitor) in HT-29 colon carcinoma cells. […] HT-29 cells were incubated with DMSO (vehicle control), 35 μM ZnCl2, 1 μM or 4 μM TPEN, or 0.5 μM, 1 μM, 4 μM, or 7.5 μM compound 3 for 16 hours, and mRNA was extracted from the cells. The expression of p21 mRNA was analyzed by real-time polymerase chain reaction using the comparative CT method. This assay was carried out using methods described in Example 19.
The expressions of p21 gene and proteins were examined following treatment with compound 3. Gene expression of p21 in HT-29 cells treated with 1 μM compound 3 was determined at the indicated times as follows. Total RNA was extracted and gene expression level was determined by RT-PCR (FIG. 42A). The level of p21 protein in total cell lysate was measured by ELISA (FIG. 42B) as follows. HT-29 cells were treated with 1 μM compound 3 with and without 20 μM MG-132 (proteasome inhibitor) for indicated time.

MTF-1 = MTF-1 binding to Cyclin D1 promoter, ChIP, HT-29; type: cell-based, human; details: HT-29, 16 hr, versus basal level
Experimental: To examine decreased MTF-1 binding to the promoter region of the MTF-1-targeted gene, cell-cycle regulatory gene Cyclin D1, HT-29 cells were treated with compound 3 for 16 hr and MTF-1 binding to Cyclin D1 promoter was assessed by chromatin immuno-precipitation assay (ChIP) (Active Motif, Carlsbad, Calif.). At the end of 16 hr treatment with compound 3, the cells were fixed with 1% formaldehyde to cross-link transcriptions factors and their target chromatin. Chromatin complexes were sheared and MTF-1-bound chromatin was pulled down by using antibody to MTF-1 (Santacruz Biotechnology Inc.). Cross-linking was reversed and the MTF-1-associated DNA was amplified by polymerase chain reaction using the primers encompassing −231 to −92 region of Cyclin D1 promoter. The 5′ primer (5′-CGGACTACAGGGGCAA-3′) [SEQ ID NO:1] and the 3′ primer (5′-GCTCCAGGACTTTGCA-3′) [SEQ ID NO:2] were synthesized at Invitrogen.

[4] = test system: MOLT-4 leukemia cell line; experiment: NCI DTP in vitro screen, MOLT-4; type: cell-based; details: Homo sapiens
Experimental: as §1, §2

K-562 leukemia cell line = experiment: NCI DTP in vitro screen, K-562; type: cell-based, human; details: K-562, in words
Experimental: as §1, §2

Cc1[nH]c2ccccc2c1-c1nc2c3cccnc3c3ncccc3c2[nH]1 [Compound 3]
GI50 [1]: 2880 nM | GI50 ([2]; Homo sapiens, NCI 60-cell line assay, read-out: average GI50 of all cell lines tested): 620 nM | GI50 ([2]; Homo sapiens, span of average values in the NCI panel (FIG. 2), read-out: GI50 average values): 610 to 12300 nM | GI50 ([2]; average over human tumour cell lines of the NCI panel (FIG. 1), read-out: average GI50 (growth inhibition by 50%)): < 2000 nM | selectivity among cancer types of the NCI panel ([2]; in words): selective inhibitor of colon, leukemia, non-small cell lung cancer, and prostate cell lines | cleavage of plasmid DNA (supercoiled plasmid DNA; 25 μM ZnCl2 or FeCl2 instead of copper): Neither zinc nor iron was able to replace copper | cleavage of plasmid DNA (supercoiled plasmid DNA; 25 μM compound, 10 μM CuSO4, 100 μM ascorbic acid, 37° C., 30 minutes): able to cleave plasmid DNA | cleavage of plasmid DNA (supercoiled plasmid DNA; absence of copper or reducing agent): Neither compound 3 nor OP was able to cleave DNA | cleavage of plasmid DNA (supercoiled plasmid DNA; ratio compound to copper 1:3): able to cleave at a ratio of 1:3 | cleavage of plasmid DNA (supercoiled plasmid DNA; ratios compound to copper 1:1, 1:2, 1:2.5): unable to cleave | p21 gene expression, change [3]: Increased gene expression of p21 | MTF-1 binding to Cyclin D1 promoter (MTF-1): Decreased MTF-1 binding to Cyclin D1 promoter | GI50 [4]: 16 nM | GI50 (K-562 leukemia cell line): nanomolar range
